Test results: publication PMC9653173, “Trotabresib (CC-90010) in combination with adjuvant temozolomide or concomitant temozolomide plus radiotherapy in patients with newly diagnosed glioblastoma” (Neuro-Oncology Advances, 2022)
“And” between values parts separate entries of the source, which are not always exact repeats. Identical values can stand only once. Like-named read-outs stand apart in the source and are kept apart here.

Assays:
[1] = test system: patients with newly diagnosed glioblastoma
From the text: The phase Ib, dose-escalation part of this study explored escalating oral doses of trotabresib in combination with TMZ in the adjuvant setting and with TMZ plus RT in the concomitant setting. […] Dose-escalation decisions were made by the safety review committee, based on all available safety, pharmacokinetics, pharmacodynamics, and preliminary efficacy information, and a calculation of risk assessment using a Bayesian logistic regression model.
The primary endpoints of the study were to determine the safety and tolerability, maximum tolerated dose, and/or recommended phase II dose (RP2D) of trotabresib in combination with TMZ as adjuvant therapy, and with TMZ and RT as concomitant therapy. […] Trotabresib pharmacodynamics was an exploratory endpoint.
Adverse events (AEs) were classified using the Medical Dictionary for Regulatory Activities v18.1 or higher system organ class and preferred term. Severity of AEs was graded based on the patient’s symptoms according to the National Cancer Institute Common Terminology Criteria for Adverse Events v5.0.[35] Dose-limiting toxicities (DLTs) were defined as any of the toxicities described in Supplementary Table S2 occurring within the DLT assessment period (cycle 1 [28 days]), unless the event could clearly be determined to be unrelated to trotabresib. Screening MRI scans were performed after surgical resection and within 28 days (+3 days) prior to initiation of study treatment. Subsequent tumor assessments by MRI or CT were performed at week 10 during the concomitant treatment period and at the end of every other treatment cycle from cycle 2 onwards during the adjuvant and trotabresib monotherapy treatment periods. Best overall response (BOR) was evaluated as complete response (CR), partial response (PR), SD, progressive disease (PD), or not evaluable, according to Response Assessment in Neuro-Oncology criteria for high-grade glioma.[36] Plasma samples were collected during the first treatment cycle for investigation of trotabresib pharmacokinetics and pharmacodynamics. Plasma pharmacokinetic parameters assessed included peak plasma concentration (Cmax), time to peak plasma concentration (tmax), area under the plasma concentration–time curve (AUC), and terminal half-life (t½). Pharmacodynamic markers assessed included blood levels of CCR1 and HEXIM1 mRNA, which are established markers of BET inhibitor target engagement.[17],[22],[37],[38]

[2] = test system: MGMT; assay: In vivo downregulation of MGMT; details: preclinical; Supplementary Figure S2
From the text: Supplementary Figure 2. In vivo downregulation of MGMT (A) mRNA by trotabresib as a single agent and (B) protein by trotabresib in combination with TMZ.

[3] = set-up: method as in PMID 36455228; details: recurrent high-grade glioma, trotabresib 30 mg/day on days 1–4 before surgery; cited from earlier work
[4] = adjuvant overall (N = 18), related to labelled drug(s)
[5] = concomitant overall (N = 14), related to labelled drug(s)

## Cn1cc(-c2cc(S(C)(=O)=O)ccc2OCC2CC2)c2ccccc2c1=O [Trotabresib]
[1]; [4]
  Vomiting TRAE, any grade: 4 (22) n (%)
  Vomiting TRAE, grade 3/4: 0 n (%)
[1]; adjuvant, trotabresib 30 mg
  Serious intracranial hemorrhage, attributed to trotabresib: 1 patient
[1]; adjuvant, trotabresib 45 mg
  Serious diarrhea, attributed to trotabresib: 1 patient
[1]; both cohorts
  Treatment-related deaths: no treatment-related deaths
[1]; concomitant overall
  Rash and other skin-related TRAEs attributed to trotabresib only: 4 (29%) n (%)
[1]; [5]
  ALT increased TRAE, any grade: 1 (7) n (%)
  ALT increased TRAE, grade 3/4: 1 (7) n (%)
  AST increased TRAE, any grade: 1 (7) n (%)
  AST increased TRAE, grade 3/4: 0 n (%)
  Acneiform dermatitis TRAE, any grade: 3 (21) n (%)
  Acneiform dermatitis TRAE, grade 3/4: 0 n (%)
  Anemia TRAE, any grade: 3 (21) n (%)
  Anemia TRAE, grade 3/4: 2 (14) n (%)
  Any TRAE, any grade: 14 (100) n (%)
  Any TRAE, grade 3/4: 7 (50) n (%)
  Asthenia TRAE, any grade: 3 (21) n (%)
  Asthenia TRAE, grade 3/4: 0 n (%)
  Blood bilirubin increased TRAE, any grade: 2 (14) n (%)
  Blood bilirubin increased TRAE, grade 3/4: 0 n (%)
  Decreased appetite TRAE, any grade: 3 (21) n (%)
  Decreased appetite TRAE, grade 3/4: 0 n (%)
  Diarrhea TRAE, any grade: 2 (14) n (%)
  Diarrhea TRAE, grade 3/4: 1 (7) n (%)
  Dysgeusia TRAE, any grade: 5 (36) n (%)
  Dysgeusia TRAE, grade 3/4: 0 n (%)
  Dyspepsia TRAE, any grade: 2 (14) n (%)
  Dyspepsia TRAE, grade 3/4: 0 n (%)
  Fatigue TRAE, any grade: 5 (36) n (%)
  Fatigue TRAE, grade 3/4: 1 (7) n (%)
  Hyperbilirubinemia TRAE, any grade: 2 (14) n (%)
  Hyperbilirubinemia TRAE, grade 3/4: 0 n (%)
  Hyperglycemia TRAE, any grade: 1 (7) n (%)
  Hyperglycemia TRAE, grade 3/4: 0 n (%)
  Hypophosphatemia TRAE, any grade: 1 (7) n (%)
  Hypophosphatemia TRAE, grade 3/4: 0 n (%)
  Hypotension TRAE, any grade: 0 n (%)
  Hypotension TRAE, grade 3/4: 0 n (%)
  Insomnia TRAE, any grade: 0 n (%)
  Insomnia TRAE, grade 3/4: 0 n (%)
  Intracranial hemorrhage TRAE, any grade: 0 n (%)
  Intracranial hemorrhage TRAE, grade 3/4: 0 n (%)
  Leukopenia TRAE, any grade: 0 n (%)
  Leukopenia TRAE, grade 3/4: 0 n (%)
  Lymphopenia TRAE, any grade: 2 (14) n (%)
  Lymphopenia TRAE, grade 3/4: 0 n (%)
  Nausea TRAE, any grade: 8 (57%) n (%) and 8 (57) n (%)
  Nausea TRAE, grade 3/4: 0 n (%)
  Neutropenia TRAE, any grade: 6 (43) n (%)
  Neutropenia TRAE, grade 3/4: 4 (29) n (%)
  Pruritus TRAE, any grade: 0 n (%)
  Pruritus TRAE, grade 3/4: 0 n (%)
  Rash TRAE, any grade: 1 (7) n (%)
  Rash TRAE, grade 3/4: 0 n (%)
  Seizure TRAE, any grade: 2 (14) n (%)
  Seizure TRAE, grade 3/4: 0 n (%)
  Thrombocytopenia TRAE, any grade: 9 (64%) n (%) and 9 (64) n (%)
  Thrombocytopenia TRAE, grade 3/4: 6 (43%) n (%) and 6 (43) n (%)
  Vomiting TRAE, any grade: 5 (36) n (%)
  Vomiting TRAE, grade 3/4: 0 n (%)
[1]; trotabresib 30 mg 4 days on/24 days off
  Platelet nadir: > 100,000 /mm^3
[2]
  MGMT expression: downregulates MGMT expression in a dose-dependent manner
[3]
  Brain tumor tissue:plasma ratio: 0.84
